# Literature values, collected in US20060194715A1, “Proteins encoded by ble genes and antibiotics from the bleomycin family” (priority 2002, published 2006).
# “And” between values parts separate entries of the source, which are not always exact repeats. Equal entries are not always repeated. Where two headings read alike, the source gives them in different places.
# Target: T1, Sh ble protein (Streptoalloteichus hindustanus, UniProt P17493)
# T1 sequence (P17493 1-124): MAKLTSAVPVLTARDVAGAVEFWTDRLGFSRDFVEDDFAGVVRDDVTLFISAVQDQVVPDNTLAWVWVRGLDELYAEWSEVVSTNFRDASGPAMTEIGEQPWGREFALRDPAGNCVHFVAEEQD
substance,measurement,setting,value
bleomycin,Kd,"first bleomycin molecule bound, read-out: first affinity (single molecule of bleomycin bound to Sh ble dimer)",~600 nM
same,Kd,"second bleomycin molecule bound, read-out: second affinity (two molecules of bleomycin bound to Sh ble dimer)",~100 nM and ≤ 100 nM
